This assay addresses T1, human TG2 (Homo sapiens, UniProt P21980).
T1 sequence (P21980 1-687): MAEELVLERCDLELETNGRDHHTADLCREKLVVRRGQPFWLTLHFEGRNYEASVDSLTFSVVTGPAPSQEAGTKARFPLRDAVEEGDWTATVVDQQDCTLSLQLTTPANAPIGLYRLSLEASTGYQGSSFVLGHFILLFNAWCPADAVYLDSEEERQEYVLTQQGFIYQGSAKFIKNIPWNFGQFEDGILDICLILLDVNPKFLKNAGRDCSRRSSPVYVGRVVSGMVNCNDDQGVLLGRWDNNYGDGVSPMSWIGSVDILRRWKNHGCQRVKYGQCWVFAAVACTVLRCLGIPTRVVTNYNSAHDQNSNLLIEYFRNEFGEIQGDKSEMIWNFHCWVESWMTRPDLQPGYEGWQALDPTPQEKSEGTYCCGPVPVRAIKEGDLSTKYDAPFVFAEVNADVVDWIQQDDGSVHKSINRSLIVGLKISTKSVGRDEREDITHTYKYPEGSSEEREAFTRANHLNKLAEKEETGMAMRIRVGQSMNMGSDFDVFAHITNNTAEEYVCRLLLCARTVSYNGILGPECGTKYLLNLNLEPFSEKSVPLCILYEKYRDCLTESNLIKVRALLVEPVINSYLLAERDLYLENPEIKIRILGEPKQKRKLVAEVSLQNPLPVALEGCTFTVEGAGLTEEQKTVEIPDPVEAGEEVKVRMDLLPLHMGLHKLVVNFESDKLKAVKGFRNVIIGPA
Kind of assay: fluorescent screening assay for human TG2. Type of assay: biochemical. Conditions: 20 nM TG2, 8 μM N,N-dimethylated Casein, 16 μM KxD, pH 7.4, 37° C. As for the experimental part:
(§1) The fluorescent screening assay for human TG2 was performed as described herein: Assay conditions were 20 nM TG2, 8 μM N,N-dimethylated Casein (NMC) and 16 μM K×D (used for all transglutaminase assays) in 25 mM Hepes, pH 7.4, 250 mM NaCl, 2 mM MgCl2, 0.5 mM CaCl2, 0.2 mM DTT, 0.05% Pluronic F-127 at 37° C. A time point was taken with a microplate reader (Safire or Ultra, Tecan; ex: 350 nm, em: 535 nm) every 3 minutes for up to 2 hours and the initial linear reaction progress was used to determine the reaction velocity as a measure for enzyme activity. Assay conditions were identical for human TG6 and similar for human TG1 and mouse TG2 apart from enzyme concentration (mTG2 at 5 nM; TG1 at 10 nM) and CaCl2 concentration (0.2 mM for mTG2; 0.05 mM for TG1). Factor XIIIa was activated using 0.1 μg/μl thrombin (Sigma) in 35 mM Tris pH 8.0 for 20 min at 30° C. and the transamidation reaction was performed with 20 nM Factor XIIIa in 50 mM Tris pH 8.0, 1.25 mM CaCl2, 0.05% Pluronic, 0.2 mM DTT. TG3 was activated with 0.02 μg/μl thrombin under the same conditions as Factor XIIIa and assay conditions were 10 nM TG3 in 50 mM Hepes, pH 8, 20 mM CaCl2, 0.2 mM DTT, 0.05% Pluronic F-127.
as §1, with “A” for “The”

The structures appear in SMILES notation. pIC50: −log10 of the molar value. Values joined by “and” are separate entries in the source; they are usually repeats but may differ in a detail not shown here. Equal entries are not always repeated.

For orientation: pIC50 means the negative decadic logarithm of the IC50, by convention in mol/L. On to `C=CC(=O)Nc1cccc(S(=O)(=O)N2CCNCC2)c1` [N-[3-(piperazine-1-sulfonyl)-phenyl]-acrylamide], for which the pIC50 was 4.60 to 6.00. In the case of `C=CC(=O)Nc1ccc(S(=O)(=O)N2CCNCC2)c(OC)c1` [N-[3-Methoxy-4-(piperazine-1-sulfonyl)-phenyl]-acrylamide], the negative logarithm of the IC50 (pIC50) was 4.60 to 6.00. Consider `C=CC(=O)Nc1ccc(S(=O)(=O)N2CCNCC2)c(C)c1` [N-[3-Methyl-4-(piperazine-1-sulfonyl)-phenyl]-acrylamide], for which the pIC50 was 4.60 to 6.00. Next, `C=CC(=O)Nc1ccc(S(=O)(=O)NC2CCCN(CC)C2)cc1` (stereo not drawn) [N-[4-(1-Ethyl-piperidin-3-ylsulfamoyl)-phenyl]-acrylamide]: 4.60 to 6.00. In turn, `C=CC(=O)Nc1ccc(S(=O)(=O)NC(C)C(=O)N2CCCCC2)cc1` (stereo not drawn) [N-[4-(1-Methyl-2-oxo-2-piperidin-1-yl-ethylsulfamoyl)-phenyl]-acrylamide] had a negative-log IC50 (pIC50) of 4.60 to 6.00. In the case of `C=CC(=O)Nc1ccc(S(=O)(=O)N2CCN(c3cnccn3)CC2)cc1` [N-[4-(2,3,5,6-Tetrahydro-[1,2′]bipyrazinyl-4-sulfonyl)-phenyl]-acrylamide] it was > 7.00 and 6.00 to 7.00; in that of `C=CC(=O)Nc1ccc(S(=O)(=O)N2CCN(C34CC5CC(CC(C5)C3)C4)CC2)cc1` [N-[4-(4-Adamantan-1-yl-piperazine-1-sulfonyl)-phenyl]-acrylamide], 4.60 to 6.00; in that of `C=CC(=O)Nc1ccc(S(=O)(=O)N2CCC(N)CC2)cc1` [N-[4-(4-Amino-piperidine-1-sulfonyl)-phenyl]-acrylamide], 4.60 to 6.00. Consider `C=CC(=O)Nc1ccc(S(=O)(=O)N2CCN(c3nc4ccccc4o3)CC2)cc1` [N-[4-(4-Benzooxazol-2-yl-piperazine-1-sulfonyl)-phenyl]-acrylamide], for which the pIC50 was > 7.00 and 6.00 to 7.00. In the case of `C=CC(=O)Nc1ccc(S(=O)(=O)N2CCN(c3nc4ccccc4s3)CC2)cc1` [N-[4-(4-Benzothiazol-2-yl-piperazine-1-sulfonyl)-phenyl]-acrylamide] it was > 7.00 and 6.00 to 7.00. As to `C=CC(=O)Nc1ccc(S(=O)(=O)N2CCN(c3cccc(-c4ccccc4)c3)CC2)cc1` [N-[4-(4-Biphenyl-3-yl-piperazine-1-sulfonyl)-phenyl]-acrylamide], the negative-log IC50 (pIC50) was 4.60 to 6.00. In the case of `C=CC(=O)Nc1ccc(S(=O)(=O)N2CCN(Cc3ccc(-c4ccccc4)cc3)CC2)cc1` [N-[4-(4-Biphenyl-4-ylmethyl-piperazine-1-sulfonyl)-phenyl]-acrylamide] it was 4.60 to 6.00; in that of `C=CC(=O)Nc1ccc(S(=O)(=O)N2CCN(C(=O)C3CCCC3)CC2)cc1` [N-[4-(4-Cyclopentanecarbonyl-piperazine-1-sulfonyl)-phenyl]-acrylamide], 6.00 to 7.00 and > 7.00; in that of `C=CC(=O)Nc1ccc(S(=O)(=O)N2CCN(C(=O)C3CC3)CC2)cc1` [N-[4-(4-Cyclopropanecarbonyl-piperazine-1-sulfonyl)-phenyl]-acrylamide], 6.00 to 7.00 and > 7.00.

`C=CC(=O)Nc1ccc(S(=O)(=O)N2CCC(c3ccco3)=Nc3ccccc32)cc1` [N-[4-(4-Furan-2-yl-2,3-dihydro-benzo[β][1,4]diazepine-1-sulfonyl)-phenyl]-acrylamide] had a negative logarithm of the IC50 (pIC50) of 4.60 to 6.00.

As for `C=CC(=O)Nc1ccc(S(=O)(=O)N2CCN(c3nccc4occc34)CC2)cc1` [N-[4-(4-Furo[3,2-c]pyridin-4-yl-piperazine-1-sulfonyl)-phenyl]-acrylamide], the pIC50 is > 7.00 and 6.00 to 7.00. In the case of `C=CC(=O)Nc1ccc(S(=O)(=O)N2CCN(c3nccc4ccccc34)CC2)cc1` [N-[4-(4-Isoquinolin-1-yl-piperazine-1-sulfonyl)-phenyl]-acrylamide], the pIC50 was > 7.00 and 6.00 to 7.00. Next, `C=CC(=O)Nc1ccc(S(=O)(=O)N2CCN(c3ccc4ccccc4c3)CC2)cc1` [N-[4-(4-Naphthalen-2-yl-piperazine-1-sulfonyl)-phenyl]-acrylamide]: 4.60 to 6.00; `C=CC(=O)Nc1ccc(S(=O)(=O)N2CCN(c3ccccn3)CC2)cc1` [N-[4-(4-Pyridin-2-yl-piperazine-1-sulfonyl)-phenyl]-acrylamide]: 6.00 to 7.00 and > 7.00. For `C=CC(=O)Nc1ccc(S(=O)(=O)N2CCN(c3ncccn3)CC2)cc1` [N-[4-(4-Pyrimidin-2-yl-piperazine-1-sulfonyl)-phenyl]-acrylamide], the negative-log IC50 (pIC50) was > 7.00 and 6.00 to 7.00.

As for `C=CC(=O)Nc1ccc(S(=O)(=O)N2CCN(c3nccs3)CC2)cc1` [N-[4-(4-Thiazol-2-yl-piperazine-1-sulfonyl)-phenyl]-acrylamide], the pIC50 was 6.00 to 7.00 and > 7.00. On to `C=CC(=O)Nc1ccc(S(=O)(=O)N2CCN(c3ncnc4ccsc34)CC2)cc1` [N-[4-(4-Thieno[3,2-d]pyrimidin-4-yl-piperazine-1-sulfonyl)-phenyl]-acrylamide], for which the negative-log IC50 (pIC50) is > 7.00 and 6.00 to 7.00. Consider `C=CC(=O)Nc1ccc(S(=O)(=O)N2CCc3cc(S(=O)(=O)N(C)C)ccc32)cc1` [N-[4-(5-Dimethylsulfamoyl-2,3-dihydro-indole-1-sulfonyl)-phenyl]-acrylamide], for which the pIC50 is 6.00 to 7.00 and > 7.00. In turn, `C=CC(=O)Nc1ccc(S(=O)(=O)N2CCNCC2)cc1` [N-[4-(piperazine-1-sulfonyl)-phenyl]acrylamide] had a negative logarithm of the IC50 (pIC50) of 4.60 to 6.00.

As to `C=CC(=O)Nc1cccc(S(=O)(=O)N2CCN(CCCc3ccccc3)CC2)c1` [N-{3-[4-(3-Phenyl-propyl)-piperazine-1-sulfonyl]-phenyl}-acrylamide], the pIC50 was 4.60 to 6.00.

In turn, `C=CC(=O)Nc1cccc(S(=O)(=O)N2CCN(CCCCc3ccccc3)CC2)c1` [N-{3-[4-(4-Phenyl-butyl)-piperazine-1-sulfonyl]-phenyl}-acrylamide] gave a pIC50 of 4.60 to 6.00. In turn, `C=CC(=O)Nc1ccc(S(=O)(=O)N2CCCC2c2ccc(C(F)(F)F)cc2)cc1` (stereo not drawn) [N-{4-[2-(4-Trifluoromethyl-phenyl)-pyrrolidine-1-sulfonyl]-phenyl}-acrylamide] gave a pIC50 of 4.60 to 6.00. In turn, `C=CC(=O)Nc1ccc(S(=O)(=O)N2CCNC(c3ccc(C)o3)C2)cc1` (stereo not drawn) [N-{4-[3-(5-Methyl-furan-2-yl)-piperazine-1-sulfonyl]-phenyl}-acrylamide] gave a negative logarithm of the IC50 (pIC50) of 4.60 to 6.00. With `C=CC(=O)Nc1ccc(S(=O)(=O)N2CCN(C(=O)N3C[C@@H](C)O[C@@H](C)C3)CC2)cc1` [N-{4-[4-(2,6-Dimethyl-morpholine-4-carbonyl)-piperazine-1-sulfonyl]-phenyl}-acrylamide], the negative logarithm of the IC50 (pIC50) was 6.00 to 7.00 and > 7.00. For `C=CC(=O)Nc1ccc(S(=O)(=O)N2CCN(c3ccnc(Cl)n3)CC2)cc1` [N-{4-[4-(2-Chloro-pyrimidin-4-yl)-piperazine-1-sulfonyl]-phenyl}-acrylamide], the negative-log IC50 (pIC50) was > 7.00 and 6.00 to 7.00. In the case of `C=CC(=O)Nc1ccc(S(=O)(=O)N2CCN(c3cccc4nc(C)ccc34)CC2)cc1` [N-{4-[4-(2-Methyl-quinolin-5-yl)-piperazine-1-sulfonyl]-phenyl}-acrylamide] it was > 7.00 and 6.00 to 7.00.

Regarding `C=CC(=O)Nc1ccc(S(=O)(=O)N2CCN(C(=O)Cc3ccc4ccccc4c3)CC2)cc1` [N-{4-[4-(2-Naphthalen-2-yl-acetyl)-piperazine-1-sulfonyl]-phenyl}-acrylamide], the negative-log IC50 (pIC50) was 6.00 to 7.00 and > 7.00. For `C=CC(=O)Nc1ccc(S(=O)(=O)N2CCN(C(=O)C3CC3c3ccccc3)CC2)cc1` (stereo not drawn) [N-{4-[4-(2-Phenyl-cyclopropanecarbonyl)-piperazine-1-sulfonyl]-phenyl}-acrylamide], the pIC50 is 6.00 to 7.00 and > 7.00.

For the origin of these results see US8946197B2, “Transglutaminase TG2 inhibitors, pharmaceutical compositions, and methods of use thereof” (CHDI Foundation, Inc., priority 2009, dated 2015).
